These results are taken from patent US12084472B2 (Ardelyx, Inc., priority 2015, dated 2024).

The experiment has as its target T1, human TGR5 (Homo sapiens, UniProt Q8TDU6).
T1 construct: expressed in transfected cells; host or cells: HEK293
T1 sequence (Q8TDU6 1-330): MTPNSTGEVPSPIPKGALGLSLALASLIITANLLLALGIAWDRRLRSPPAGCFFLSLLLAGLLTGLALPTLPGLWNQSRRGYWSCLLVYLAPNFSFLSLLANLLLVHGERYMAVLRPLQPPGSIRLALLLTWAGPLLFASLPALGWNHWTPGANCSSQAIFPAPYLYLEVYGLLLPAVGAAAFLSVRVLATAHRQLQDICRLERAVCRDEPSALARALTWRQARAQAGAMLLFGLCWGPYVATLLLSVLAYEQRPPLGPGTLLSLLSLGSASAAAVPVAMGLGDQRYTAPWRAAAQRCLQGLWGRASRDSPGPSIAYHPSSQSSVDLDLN
As to the kind of experiment: Cell-based TGR5 assay (cAMP generation, HTRF). Conditions: HEK293 cells stably transfected with human TGR5; cAMP by HTRF; 30 minutes at 37° C.; read-out: pEC50 Human TGR5 (converted). A digest of the protocol: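 Read-out was HTRF detection of cAMP, converted to concentration via a standard curve and fitted (3-parameter logistic) for pEC50 and maximal response. Agonist stimulation used HEK293 cells stably transfected with human TGR5, incubated 30 min at 37° C in IBMX-containing buffer at 0.05 nM to 10 μM compound.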
(In general: Time-resolved FRET reads energy transfer from a long-lived donor to a nearby acceptor.)
In the case of `O=C([C@@H](O)[C@@H](O)[C@H](O)[C@@H](O)CO)N(CCCCCO)CCCCCSc1ccc(Cl)c(CNC2(c3cnccc3-c3ccccc3OC3CC3)CC2)c1` [Compound I-601, (2S,3S,4R,5S)-N-[5-({4-chloro-3-[({1-[4-(2-cyclopropoxyphenyl)pyridin-3-yl]cyclopropyl}amino)methyl]phenyl}sulfanyl)pentyl]-2,3,4,5,6-pentahydroxy-N-(5-hydroxypentyl)hexanamide], the EC50 was less than 100 nM. Then `CC(CCCN(C(=O)[C@@H](O)[C@@H](O)[C@H](O)[C@@H](O)CO)C1CCOCC1)c1ccc(Cl)c(CNC2(c3cnccc3-c3ccccc3OC3CC3)CC2)c1` (stereo partly drawn) [Compound I-285, (2S,3S,4R,5S)-N-(4-{4-chloro-3-[({1-[4-(2-cyclopropoxyphenyl)pyridin-3-yl]cyclopropyl}amino)methyl]phenyl}pentyl)-2,3,4,5,6-pentahydroxy-N-(oxan-4-yl)hexanamide], with 126 to 1000 nM; and `CN(CCC(=O)NC[C@H](O)[C@@H](O)[C@H](O)[C@H](O)CO)S(=O)(=O)c1ccc(Cl)c(COC2(c3cnccc3-c3ccccc3OC3CC3)CC2)c1` [Compound I-434, 3-[N-methyl4-chloro-3-({1-[4-(2-cyclopropoxyphenyl)pyridin-3-yl]cyclopropoxy}methyl)benzenesulfonamido]-N-[(2S,3R,4R,5R)-2,3,4,5,6-pentahydroxyhexyl]propanamide], with less than 100 nM.

For the molecule `COCCN(C[C@H](O)[C@@H](O)[C@H](O)[C@H](O)CO)C(=O)CCCSc1ccc(Cl)c(COC2(c3cnccc3-c3ccccc3OC3CC3)CC2)c1` [Compound I-664, 4-{[4-chloro-3-({1-[4-(2-cyclopropoxyphenyl)pyridin-3-yl]cyclopropoxy}methyl)phenyl]sulfanyl}-N-(2-methoxyethyl)-N-[(2S,3R,4R,5R)-2,3,4,5,6-pentahydroxyhexyl]butanamide], the EC50 was less than 100 nM. Then `O=C(/C=C/CC1CN(S(=O)(=O)c2ccc(Cl)c(COC3(c4cnccc4-c4ccccc4OC4CC4)CC3)c2)C1)NC[C@H](O)[C@@H](O)[C@H](O)[C@H](O)CO` [Compound I-452, (2E)-4-{1-[4-chloro-3-({1-[4-(2-cyclopropoxyphenyl)pyridin-3-yl]cyclopropoxy}methyl)benzenesulfonyl]azetidin-3-yl}-N-[(2S,3R,4R,5R)-2,3,4,5,6-pentahydroxyhexyl]but-2-enamide], with less than 100 nM. As for `CN(CCCCNC(=O)NC[C@H](O)[C@@H](O)[C@H](O)[C@H](O)CO)S(=O)(=O)c1ccc(Cl)c(COC2(c3cnccc3-c3ccccc3OC3COC3)CC2)c1` [Compound I-464, 1-(4-{N-methyl4-chloro-3-[(1-{4-[2-(oxetan-3-yloxy)phenyl]pyridin-3-yl}cyclopropoxy)methyl]benzenesulfonamido}butyl)-3-[(2S,3R,4R,5R)-2,3,4,5,6-pentahydroxyhexyl]urea], the figure is less than 100 nM.

Turning to `COc1ccccc1-c1ccncc1C1(OCc2cc(Cl)ccc2Cl)CC1` [Compound I-45, 3-[1-[(2,5-dichlorophenyl)methoxy]cyclopropyl]-4-(2-methoxyphenyl)pyridine], the EC50 is less than 100 nM. As to `CC(=O)N(CCCCC(C)c1ccc(Cl)c(CNC2(c3cnccc3-c3ccccc3OC3CC3)CC2)c1)C[C@H](O)[C@@H](O)[C@H](O)[C@H](O)CO` (stereo partly drawn) [Compound I-378, N-(5-{4-chloro-3-[({1-[4-(2-cyclopropoxyphenyl)pyridin-3-yl]cyclopropyl}amino)methyl]phenyl}hexyl)-N-[(2S,3R,4R,5R)-2,3,4,5,6-pentahydroxyhexyl]acetamide], the EC50 is less than 100 nM.

In the case of `CSc1cc(CNC2(c3cnccc3-c3ccccc3OC3CC3)CC2)c(C)cn1` [Compound I-619, [4-(2-cyclopropoxyphenyl)pyridin-3-yl]-N-{[5-methyl-2-(methylsulfanyl)pyridin-4-yl]methyl}cyclopropan-1-amine], the EC50 was less than 100 nM. As to `CC(CCCN(C(=O)[C@@H](O)[C@@H](O)[C@H](O)[C@@H](O)CO)C1CCS(=O)(=O)CC1)c1ccc(Cl)c(CNC2(c3cnccc3-c3ccccc3OC3CC3)CC2)c1` (stereo partly drawn) [Compound I-295, (2S,3S,4R,5S)-N-(4-{4-chloro-3-[({1-[4-(2-cyclopropoxyphenyl)pyridin-3-yl]cyclopropyl}amino)methyl]phenyl}pentyl)-N-(1,1-dioxo-1λ^6-thian-4-yl)-2,3,4,5,6-pentahydroxyhexanamide], the EC50 is less than 100 nM. As for `COCCCN(CCCC(C)c1ccc(Cl)c(CNC2(c3cnccc3-c3ccccc3OC3CC3)CC2)c1)C(=O)[C@@H](O)[C@@H](O)[C@H](O)[C@@H](O)CO` (stereo partly drawn) [Compound I-284, (2S,3S,4R,5S)-N-(4-{4-chloro-3-[({1-[4-(2-cyclopropoxyphenyl)pyridin-3-yl]cyclopropyl}amino)methyl]phenyl}pentyl)-2,3,4,5,6-pentahydroxy-N-(3-methoxypropyl)hexanamide], the EC50 is less than 100 nM. For `CN(CCCCN(C)S(=O)(=O)c1ccc(Cl)c(COC2(c3cnccc3-c3ccccc3OC3CC3)CC2)c1)C(=O)[C@@H](O)[C@@H](O)[C@H](O)[C@@H](O)CO` [Compound I-461, (2S,3S,4R,5S)-2,3,4,5,6-pentahydroxy-N-methyl-N-{4-[N-methyl4-chloro-3-({1-[4-(2-cyclopropoxyphenyl)pyridin-3-yl]cyclopropoxy}methyl)benzenesulfonamido]butyl}hexanamide], the EC50 is less than 100 nM. As for `O=C(CCCCc1cc(Cl)c(COC2(c3cnccc3-c3ccccc3OC3CC3)CC2)cc1Cl)NCCN1CCN(CC(=O)NC[C@H](O)[C@@H](O)[C@H](O)[C@H](O)CO)CC1` [Compound I-99, 5-[2,5-dichloro-4-({1-[4-(2-cyclopropoxyphenyl)pyridin-3-yl]cyclopropoxy}methyl)phenyl]-N-{2-[4-({[(2S,3R,4R,5R)-2,3,4,5,6-pentahydroxyhexyl]carbamoyl}methyl)piperazin-1-yl]ethyl}pentanamide], the EC50 was less than 100 nM. As for `CCN(C[C@H](O)[C@@H](O)[C@H](O)[C@H](O)CO)C(=O)CCCC(C)c1ccc(Cl)c(COC2(c3cnccc3-c3ccccc3OC3CC3)CC2)c1` (stereo partly drawn) [Compound I-373, 5-[4-chloro-3-({1-[4-(2-cyclopropoxyphenyl)pyridin-3-yl]cyclopropoxy}methyl)phenyl]-N-ethyl-N-[(2S,3R,4R,5R)-2,3,4,5,6-pentahydroxyhexyl]hexanamide], the figure is less than 100 nM; as for `CCCN(C[C@H](O)[C@@H](O)[C@H](O)[C@H](O)CO)C(=O)CCCSc1ccc(Cl)c(COC2(c3cnccc3-c3ccccc3OC3CC3)CC2)c1` [Compound I-666, 4-{[4-chloro-3-({1-[4-(2-cyclopropoxyphenyl)pyridin-3-yl]cyclopropoxy}methyl)phenyl]sulfanyl}-N-[(2S,3R,4R,5R)-2,3,4,5,6-pentahydroxyhexyl]-N-propylbutanamide], less than 100 nM. On to `O=C([C@@H](O)[C@@H](O)[C@H](O)[C@@H](O)CO)N(CCCCCO)CCCCCSc1ccc(Cl)c(COC2(c3cnccc3-c3ccccc3OC3CC3)CC2)c1` [Compound I-606, (2S,3S,4R,5S)-N-(5-{[4-chloro-3-({1-[4-(2-cyclopropoxyphenyl)pyridin-3-yl]cyclopropoxy}methyl)phenyl]sulfanyl}pentyl)-2,3,4,5,6-pentahydroxy-N-(5-hydroxypentyl)hexanamide], for which the EC50 is less than 100 nM. Then `O=C(NCCC1CCN(S(=O)(=O)c2ccc(Cl)c(COC3(c4cnccc4-c4ccccc4OC4CC4)CC3)c2)CC1)NC[C@H](O)[C@@H](O)[C@H](O)[C@H](O)CO` [Compound I-417, 1-(2-{1-[4-chloro-3-({1-[4-(2-cyclopropoxyphenyl)pyridin-3-yl]cyclopropoxy}methyl)benzenesulfonyl]piperidin-4-yl}ethyl)-3-[(2S,3R,4R,5R)-2,3,4,5,6-pentahydroxyhexyl]urea], with less than 100 nM; and `CCc1ccc(SCCCC(=O)N(C)C[C@H](O)[C@@H](O)[C@H](O)[C@H](O)CO)cc1COC1(c2cnccc2-c2ccccc2OC2CC2)CC1` [Compound I-691, 4-{[3-({1-[4-(2-cyclopropoxyphenyl)pyridin-3-yl]cyclopropoxy}methyl)-4-ethylphenyl]sulfanyl}-N-methyl-N-[(2S,3R,4R,5R)-2,3,4,5,6-pentahydroxyhexyl]butanamide], with 126 to 1000 nM. With `CN(C[C@H](O)[C@@H](O)[C@H](O)[C@H](O)CO)C(=O)CCCCSc1ccc(Cl)c(CNC2(c3cnccc3-c3ccccc3OC3CC3)CC2)c1` [Compound I-678, 5-({4-chloro-3-[({1-[4-(2-cyclopropoxyphenyl)pyridin-3-yl]cyclopropyl}amino)methyl]phenyl}sulfanyl)-N-methyl-N-[(2S,3R,4R,5R)-2,3,4,5,6-pentahydroxyhexyl]pentanamide], the EC50 is less than 100 nM. Take `CC(C)N(CCCCNC(=O)[C@@H](O)[C@@H](O)[C@H](O)[C@@H](O)CO)S(=O)(=O)c1cc(COC2(c3cnccc3-c3ccccc3OC3CC3)CC2)c(Cl)cc1F` [Compound I-728, (2S,3S,4R,5S)-2,3,4,5,6-pentahydroxy-N-[4-[N-(propan-2-yl)[4-chloro-5-([1-[4-(2-cyclopropoxyphenyl)pyridin-3-yl]cyclopropoxy]methyl)-2-fluorobenzene]sulfonamido]butyl]hexanamide]: the EC50 was less than 100 nM.

On to `Clc1ccc(Cl)c(COC2(c3cnccc3-c3ccccc3OC3CCC3)CC2)c1` [Compound I-49, 4-(2-cyclobutoxyphenyl)-3-{1-[(2,5-dichlorophenyl)methoxy]cyclopropyl}pyridine], for which the EC50 is less than 100 nM.
